Test results published in patent publication US20050181467A1, “ATP extraction method” (priority 2000, published 2005).

Molecular target: luciferase (Photinus pyralis, UniProt P08659)
Assay: ATP-luciferin-luciferase assay (light intensity, luminometer)
Format: biochemical, firefly
Settings: for effect on light intensity: diluted concentrations compared with the positively charged extractant, 5; for neutralizing the inhibitory effect(s) of commonly employed extractants on the ATP-luciferin-luciferase light reaction: overall conclusion, SDS at the proper concentrations
Method: ATP-luciferin-luciferase assays were conducted to determine the effect of the following on assay activity: (1) Tween® 20 (2% Tween® 20 in 50 mM tricene buffer, pH 6.75), (2) MgSO4 (0.229 g/L in 50 mM tricene buffer, pH 7.46), (3) SDS (0.268 g/L in 50 mM tricene buffer, pH 7.61) and (4) a combination of MgSO4 and various amounts of Tween®. Each of these substances were assayed alone and in the presence of a commonly used positively charged ATP extractant, i.e., benzalkonium chloride (0.3325 g/L). Many of the assays were conducted in the presence of the following sanitizers: Ster-Bac® (1 oz/4 gal); Ster-Bac® (2.5 ml/L); XY-12 (200 ppm); XY-12 (600 ppm); Simplex Quat (1 oz/gal); Kleer-Mor® (1 oz/2 gal); and Kleer-Mor® (4 oz/2 gal). The MgSO4 and SDS assays were conducted using molar concentrations of MgSO4 and SDS equal to that of the positively charged extractant, as well as using molar concentrations of MgSO4 and SDS diluted as compared to that of the positively charged extractant.
Depending on the substance being tested, sanitizer, neutralizer (i.e., Tween® 20, MgSO4 or SDS), ATP solution, luciferin/luciferase cocktail, extractant and/or benzalkonium chloride (in various combinations) were placed in a cuvette and light intensity was read. Each sanitizer was run in duplicate. A control tube containing buffer and ATP was also run. Light output was measured in a Monolight 3010 luminometer. Each experiment was conducted in total volume of 0.42 ml in the curvette.

Chain of luciferase (P08659 whole entry, species assumed): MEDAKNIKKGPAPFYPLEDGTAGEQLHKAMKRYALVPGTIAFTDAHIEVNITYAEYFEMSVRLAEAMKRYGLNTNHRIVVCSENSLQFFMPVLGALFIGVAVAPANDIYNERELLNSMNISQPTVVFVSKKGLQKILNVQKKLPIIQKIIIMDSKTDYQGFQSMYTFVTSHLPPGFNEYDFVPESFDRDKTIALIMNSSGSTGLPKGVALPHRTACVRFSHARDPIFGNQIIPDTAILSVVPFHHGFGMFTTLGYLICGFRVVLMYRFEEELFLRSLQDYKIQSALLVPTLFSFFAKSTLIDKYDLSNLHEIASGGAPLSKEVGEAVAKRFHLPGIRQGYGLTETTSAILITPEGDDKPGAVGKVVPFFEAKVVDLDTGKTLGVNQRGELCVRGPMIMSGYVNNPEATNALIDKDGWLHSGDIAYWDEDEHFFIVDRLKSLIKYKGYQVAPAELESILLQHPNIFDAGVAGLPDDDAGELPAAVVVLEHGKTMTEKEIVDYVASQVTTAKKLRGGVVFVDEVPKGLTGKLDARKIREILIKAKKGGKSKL

Structure (SMILES)	neutralizing the inhibitory effects of benzalkonium chloride (diluted 1:2 or more compared with the extractant, FIGS. 4A-4C)	effect on light intensity (FIGS. 4A-4C)	effect on the light reaction (equal concentrations of neutralizer and positively charged extractant, FIG. 3)	neutralizing the inhibitory effect(s) of commonly employed extractants on the ATP-luciferin-luciferase light reaction	effect on the light reaction at too high a concentration (present at too high a concentration)	performance as neutralizer compared with SDS (intensity of light) (equal concentrations of neutralizer and extractant, with sanitizer, with extractant and alone, FIG. 3)	performance as neutralizer compared with Tween 20 (intensity of light) (equal concentrations of neutralizer and positively charged extractant (benzalkonium chloride), various sanitizers, FIGS. 1 and 2)	neutralizing the effects of sanitizer (extractant, sanitizer and ATP-luciferin-luciferase solution, FIGS. 6A, 6B)
CCCCCCCCCCCCOS(=O)(=O)[O-].[Na+] [SDS, sodium dodecyl sulfate]	effective in neutralizing the inhibitory effects of benzalkonium chloride	did not affect (inhibit) light intensity	not effective and inhibited the light reaction	neutralizes the inhibitory effect(s)	completely eliminate the light reaction	–	–	–
O=S(=O)([O-])[O-].[Mg+2] [MgSO4, magnesium sulfate]	–	increased light intensity over the undiluted MgSO4	–	more effective than Tween® 20	–	performed better than SDS in all assays	performed better than Tween® 20 as a neutralizer for all sanitizers except one	works at least as well and, in most cases, better than Tween® 20
